Test results published in publication PMC5355960, “Specific inhibition of CK2α from an anchor outside the active site” (Chemical Science, 2016).
Read-outs that look alike come from different tables or passages of the source.

What was measured:
CK2α [1] = target: CK2α (Homo sapiens, UniProt P68400); settings: for ΔH / ΔS: ITC
FLT3 = settings: read-out: IC50 FLT3; ref J.Med. Chem. (2011) 54:2:635; cited from earlier work
CLK3 [2] = settings: read-out: IC50 CLK3; ref PLOS ONE (2014) 9:4; cited from earlier work
PIM1 [3] = settings: read-out: IC50 PIM1; ref J.Med. Chem. (2011) 54:2:635; cited from earlier work
A549 cells [4] = settings: 72 hours
CLK3 [5] = settings: read-out: IC50 CLK3; ref J.Med. Chem. (2011) 54:2:635; cited from earlier work
Jurkat cells [6] = settings: 72 hours
A549 cells [7] = assay: cells; settings: Homo sapiens, A549, 72 h
HIPK3 = settings: read-out: IC50 HIPK3; ref J.Med. Chem. (2011) 54:2:635; cited from earlier work
HCT116 cells [8] = settings: 72 hours
CDK1/Cyclin B = settings: read-out: IC50 CDK1/Cyclin B; ref J.Med. Chem. (2011) 54:2:635; cited from earlier work
PIM2 = settings: read-out: IC50 PIM2; ref Biorg. Med. Chem. Lett. (2011) 21;22;6687; cited from earlier work
CLK1 = settings: read-out: IC50 CLK1; ref PLOS ONE (2014) 9:4; cited from earlier work
238 kinases = settings: cited from earlier work
PIM1 [9] = settings: read-out: IC50 PIM1; ref Biorg. Med. Chem. Lett. (2011) 21;22;6687; cited from earlier work
DAPK3 = settings: read-out: IC50 DAPK3; ref J.Med. Chem. (2011) 54:2:635; cited from earlier work
TBK1 = settings: read-out: IC50 TBK1; ref J.Med. Chem. (2011) 54:2:635; cited from earlier work
Jurkat cells [10] = assay: cells; settings: Homo sapiens, 72 h
CDK2/Cyclin E = settings: read-out: IC50 CDK2/Cyclin E; ref Eur. J. Med. Chem. (2014) 78:217-224; cited from earlier work
HCT116 cells [11] = assay: cells; settings: Homo sapiens, HCT-116, 72 h
CK2α [12] = settings: read-out: IC50 CK2α; ref J.Med. Chem. (2011) 54:2:635; cited from earlier work
102 kinases = settings: cited from earlier work
[13] = system: HCT116, Jurkat and A549 cells; settings: A549 vs IC50 (for pro-CAM4066: IC50 of CAM4066)
[14] = HCT116, 2 × GI50, all time points (24, 48, 72 hours)

CK2α, sequence (P68400 2-329): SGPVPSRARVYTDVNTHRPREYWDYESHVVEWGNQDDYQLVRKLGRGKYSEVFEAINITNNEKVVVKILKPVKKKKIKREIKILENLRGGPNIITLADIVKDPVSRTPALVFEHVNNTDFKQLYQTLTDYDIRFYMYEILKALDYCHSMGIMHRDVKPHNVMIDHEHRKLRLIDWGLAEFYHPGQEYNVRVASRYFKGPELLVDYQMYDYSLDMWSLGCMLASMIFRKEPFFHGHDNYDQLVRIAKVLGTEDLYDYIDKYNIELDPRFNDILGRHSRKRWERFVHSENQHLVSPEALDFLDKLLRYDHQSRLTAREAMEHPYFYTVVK

Nc1cccc(C(=O)O)c1 [compound 6]
detectable binding by ITC (CK2α [1]): no inhibition of phosphorylation at 500 μM or detectable binding by ITC

O=C(O)c1ccc2c(c1)nc(Nc1cccc(Cl)c1)c1ccncc12 [CX4945]
IC50 (FLT3): 0.055 µM
IC50 (CLK3 [2]): 0.09 µM
IC50 (PIM1 [3]): 0.046 µM
GI50 (A549 cells [4]): 16.6 µM
inhibition of the phosphorylation of CDC37 Ser13 (Cdc37 phosphoserine 13; HCT116, 2 × GI50, 24 hours): reduced inhibition
inhibition of the phosphorylation of CDC37 Ser13 (Cdc37 phosphoserine 13; [14]): very clear inhibition
inhibition of the phosphorylation of AKT1 Ser129 (AKT1 phosphoserine 129; [14]): very clear inhibition
IC50 (CLK3 [5]): 0.041 µM
GI50 (Jurkat cells [6]): 4.7 µM
GI50 (A549 cells [7]): 17 µM
IC50 (HIPK3): 0.045 µM
GI50 (HCT116 cells [8]): 5 µM
IC50 (CDK1/Cyclin B): 0.056 µM
IC50 (PIM2): 0.186 µM
IC50 (CLK1): 0.082 µM
number of other kinases inhibited by 70% or greater (238 kinases; 0.5 μM, screen size 238 kinases): 26
number of other kinases inhibited with nanomolar IC50 values (238 kinases): at least twelve
IC50 (PIM1 [9]): 0.048 µM
IC50 (DAPK3): 0.017 µM
IC50 (TBK1): 0.035 µM
GI50 (Jurkat cells [10]): 5 µM
IC50 (CDK2/Cyclin E): 1.8 µM
GI50 (HCT116 cells [11]): 4.8 µM

O=C(O)c1ccc2c(c1)nc(Nc1cccc(C(F)(F)F)c1)c1nc(NC3CC3)ncc12 [CX5279]
number of other kinases inhibited by 70% or greater (102 kinases; 0.5 μM, 102 kinases): 4
Gini coefficient (102 kinases; larger literature panel): 0.755

CCCOc1ccc(CN)cc1Cl.Cl [compound 3]
ΔH (CK2α [1]): -5.047 kcal/mol
ΔS (CK2α [1]): -2.28 cal/mol/deg

COC(=O)c1cccc(NC(=O)CCNC(=O)CCNCc2ccc(-c3ccccc3)c(Cl)c2)c1 [pro-CAM4066]
GI50 (A549 cells [4]; listed as 8): 20.2 µM
drop-off in the GI50 compared to the IC50 [13]: 19-60 fold
inhibition of the phosphorylation of CDC37 Ser13 (Cdc37 phosphoserine 13; HCT116, 2 × GI50, 48 and 72 hours): the inhibition did increase
inhibition of the phosphorylation of CDC37 Ser13 (Cdc37 phosphoserine 13; HCT116, 2 × GI50, 24 hours): no inhibition
inhibition of the phosphorylation of AKT1 Ser129 (AKT1 phosphoserine 129; HCT116, 2 × GI50, 24 hours): approximately 50%
GI50 (Jurkat cells [6]; listed as 8): 6.3 µM
GI50 (A549 cells [7]): 20 µM
GI50 (HCT116 cells [8]): 8.8 µM
GI50 (Jurkat cells [10]): 6 µM
GI50 (HCT116 cells [11]): 9 µM

Cc1ccc(O)c(C(=O)O)c1 [compound 5]
ΔH (CK2α [1]): -7.722 kcal/mol
ΔS (CK2α [1]): -6.51 cal/mol/deg
